Several values for one entry are separate records, joined by “and”; a condition that tells them apart may be missing. Identical values can stand only once.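 Compound exposure: 48 hours, 5 concentrations, 96-well plates. GI50 = concentration required for 50% inhibition of growth. Definition used: TGI = concentration required for complete inhibition of growth.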
Key:
Experiment in all cases: NCI anticancer screen, dose series, 48 h
786-0 renal = tested on: 786-0 renal
A549 NSCLC = tested on: A549 NSCLC
CAKI-1 renal = tested on: CAKI-1 renal
HOP-92 NSCLC = tested on: HOP-92 NSCLC
HT29 colon = tested on: HT29 colon
LOX IMVI melanoma = tested on: LOX IMVI melanoma
NCI-H226 lung = tested on: NCI-H226 lung
T-47D breast = tested on: T-47D breast
TK-10 renal = tested on: TK-10 renal
UACC-257 melanoma = tested on: UACC-257 melanoma
UO-31 renal = tested on: UO-31 renal

Row | SMILES | TGI (786-0 renal) [µM] | TGI (A549 NSCLC) [µM] | TGI (CAKI-1 renal) [µM] | TGI (HOP-92 NSCLC) [µM] | TGI (HT29 colon) [µM] | TGI (LOX IMVI melanoma) [µM] | TGI (NCI-H226 lung) | TGI (T-47D breast) [µM] | TGI (TK-10 renal) [µM] | TGI (UACC-257 melanoma) [µM] | TGI (UO-31 renal) [µM] | GI50 (A549 NSCLC) [µM] | GI50 (HOP-92 NSCLC) [µM] | GI50 (TK-10 renal) [µM]
1 | COc1ccc(CCCCNCc2cccc(CNCCCCc3ccc(OC)cc3)c2)cc1 | 4.51 | 4.86 | 3.63 | 2.91 | 3.16 | 3.23 | 2.33 µM | 4.35 | 5.02 | > 19.7 | 2.68 | – | – | –
2 | O=[N+]([O-])c1ccc(/C=N/Nc2nc3ccccc3[nH]2)o1 | > 100 | 30.4 | 28.7 | 39.1 | 68 | 35 | 55.5 µM | 35.8 | 50 | > 100 | 47.5 | – | – | –
3 | O=C1CC(c2cccc(Cl)c2)Nc2ccc(N3CCCC3)cc21 (stereo unspecified) | > 100 | > 100 | > 100 | > 100 | 0.331 | > 100 | 0.606 µM and 0.338 µM | > 100 | > 100 | > 100 | 50.7 | 0.0153 | 0.135 | > 100
4 | CC(C)C(Cl)CCC(C)(Cl)C(=O)CBr (stereo unspecified) | 8.02 | 53.4 | 14.3 | 23.8 | 11.6 | 2.36 | 44.5 µM | 6.27 | 13.7 | 16.6 | 15 | – | – | –
5 | C=C1CC[C@@H](CCC2CCC3(OC2)O[C@]2(O)CC[C@@]3(C)OC2(C)C)C(C)(C)[C@H]1C/C=C1\CCOC1=O (stereo partly specified) | 31.3 | > 100 | > 88.1 | 66.4 | 31.1 | 20 | 35.2 µM | 90.3 | > 93.1 | > 67.6 | > 100 | – | – | –
6 | O=C(CCc1cc(O)cc(O)c1)NCCc1cc(O)cc(OCc2ccccc2)c1 | > 100 | > 100 | > 100 | > 100 | > 100 | > 100 | > 100 µM | > 100 | > 100 | > 100 | > 100 | – | – | –
7 | COc1ccc2nc3c(c(N)c2c1)C1CCC3C1(C)C (stereo unspecified) | 59.2 | > 100 | > 100 | 57.3 | > 100 | > 100 | 72 µM | > 100 | > 100 | 40.5 | > 100 | – | – | –
8 | NCCOc1cccc(C2(N3CCCCC3)CCCCC2)c1 | 26.1 | > 100 | > 100 | 95.2 | 41.2 | 28.9 | > 100 µM | > 100 | > 100 | 34 | 28.2 | – | – | –
9 | N#Cc1c(NC(=O)C(F)(F)F)sc2c3c(=O)c4ccccc4c(=O)c=3oc3ccccc3c12 | 72.2 | > 77.6 | 31.4 | > 53.6 | 41.6 | > 59.1 | 21.2 µM | 59.3 | 74.6 | 35.7 | 46.4 | – | – | –
10 | Clc1ccc(C=Nc2ccc(Oc3ccc(Cl)cc3)c(Cl)c2)cc1 | 36.1 | 59.1 | 86.2 | 41 | 55 | 39.1 | > 100 µM | 89.8 | > 100 | 77.5 | 24.8 | – | – | –
11 | COC(=O)/C=C/c1ccc(OP(=O)(O)O)c(OC)c1 | > 100 | > 100 | > 100 | > 100 | > 100 | > 100 | > 100 µM | > 100 | > 100 | > 100 | > 100 | – | – | –
12 | Oc1c(N2CCCCC2)cc(-c2cc(N3CCCCC3)c(O)c3ccccc23)c2ccccc12 | 45 | > 100 | > 100 | 70.4 | 55.5 | 73.2 | > 100 µM | > 100 | > 100 | 28.5 | > 100 | – | – | –
13 | C[C@@H](CC(=O)OCc1ccccc1)OC1OC(COC(=O)C(C)(C)C)C(OC(=O)C(C)(C)C)C(OC(=O)C(C)(C)C)C1OC(=O)C(C)(C)C (stereo partly specified) | > 100 | > 100 | > 100 | > 100 | > 100 | > 100 | > 100 µM | > 100 | > 100 | > 100 | > 100 | – | – | –
14 | N#Cc1sc2nc3ccccc3n2c1N | > 100 | > 100 | > 100 | > 100 | > 100 | > 100 | > 100 µM | > 100 | > 100 | > 100 | > 100 | – | – | –
15 | C=CCON(C(=O)OC(C)(C)C)C(C)(C)C | > 100 | > 100 | > 100 | > 100 | > 100 | > 100 | > 100 µM | > 100 | > 100 | > 100 | > 100 | – | – | –
16 | CN=c1sc2c(n1C)C(=O)c1ccccc1C2=O | 20.7 | 3.94 | 15.5 | 29.9 | 10.4 | 10.4 | 5.65 µM | 17.5 | 35.6 | 4.59 | 19.6 | – | – | –
17 | COc1ccc(/C(Nc2ccccc2)=C(\CCl)c2ccccc2)cc1OC | > 100 | > 100 | > 100 | > 100 | > 100 | > 100 | > 100 µM | > 100 | > 100 | > 100 | > 100 | – | – | –
18 | COC(=O)C1CCC(=O)N1CN(C(C)=O)c1cccc(O)c1 (stereo unspecified) | > 100 | > 100 | > 100 | > 100 | > 100 | > 100 | > 100 µM | > 100 | > 100 | > 100 | > 100 | – | – | –
